Where a name gives a salt, the structure may show the parent alone.

The target of one assay is T1, 5-HT4 receptor (Cavia porcellus, UniProt O70528).
T1 construct: the mixture was suspended to give receptor membrane preparations; from tissue; host or cells: guinea pig (Slc-Hartley) brain striatum membranes
T1 sequence (O70528 whole entry): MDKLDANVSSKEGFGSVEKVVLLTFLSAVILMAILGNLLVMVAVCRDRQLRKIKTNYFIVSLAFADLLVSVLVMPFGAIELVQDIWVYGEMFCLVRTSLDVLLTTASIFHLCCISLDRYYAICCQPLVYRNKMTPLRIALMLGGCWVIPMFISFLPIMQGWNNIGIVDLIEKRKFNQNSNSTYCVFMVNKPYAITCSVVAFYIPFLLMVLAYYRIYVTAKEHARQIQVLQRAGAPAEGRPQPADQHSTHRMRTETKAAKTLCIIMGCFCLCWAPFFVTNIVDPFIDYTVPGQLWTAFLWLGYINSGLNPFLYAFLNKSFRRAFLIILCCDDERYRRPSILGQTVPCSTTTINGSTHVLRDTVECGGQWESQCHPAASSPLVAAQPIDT
Description: Serotonin 4 (5-HT4) receptor binding assay. The arrangement: species or system guinea pig.
Settings: not given
The procedure:
5-HT4 receptor binding assay and preparations of receptor membrane preparations were carried out according to a method of Grossman et al. [see British J. Pharmacol., (1993) 109, 618].
Slc-Hartley guinea pigs (body weight 300 to 400 g) were decapitated to remove brain rapidly, and striatum was isolated. To the obtained tissues were added fifteenfold of Hepes buffer (50 mM, pH7.4, 4° C.), and the mixture was homogenized by Teflon® homogenizer and centrifuged at 48,000×g (4° C.) for 15 minutes. To the resulting precipitate was added Hepes buffer (1 ml) to 30 mg by wet weight of tissues, and the mixture was suspended to give receptor membrane preparations.
0.1 nM [^3H]-GR113808 {chemical name: [1-[2-(methylsulfonylamino)ethyl]-4-piperidinyl]methyl 1-methylindole-3-carboxylate}, receptor membrane preparations, and Hepes buffer (50 mM, pH7.4, 4° C., 1 ml) containing test compounds or 30 μM serotonin were placed in an assay tube, and incubated at 37° C. for 30 minutes. On quenching the reaction, the mixture was rapidly filtered on whatman GF/B filter, which was presoaked in 0.1% polyethyleneimine for 1 hour, by using Brandel cell Harvester, and washed with ice-cooled 50 mM Tris-HCl (pH7.7, 4 ml) three times. To the filter after filtration was added ACS II scintillator, and then a radioactivity was determined by a liquid scintillation counter.
50% inhibition concentrations (IC50) were determined from inhibition rates of test compounds to specific bindings which were obtained by subtracting nonspecific bindings from total binding amounts of [^3H]-GR113808.
Broadly, the IC50 is the concentration needed to halve the response being measured. `COc1cc(N)c(Cl)cc1C(=O)NC[C@H]1CN(CC2CCN(C(=O)Oc3ccccc3)CC2)CCO1` [Example 106] had a 50% inhibitory concentration (IC50) of 6.12 nM. On the same count and under the same terms, then `COc1ccccc1OC(=O)N1CCC(CN2CCO[C@@H](CNC(=O)c3cc(Cl)c(N)cc3OC)C2)CC1` [Example 107], with 3.43 nM.

Still in this assay, the particulars now being: inhibition of specific binding of 0.1 nM [3H]-GR113808; guinea pig striatum membrane preparations; 37° C., 30 minutes; read-out: IC50.
Take `C=CCCCCC(=O)N1CCC(CN2CCOC(CNC(=O)c3cc(Cl)c(N)cc3OCC)C2)CC1` (racemic) [Example 162]: the IC50 worked out at 7.9 nM.

In the case of `C=CC=CC(=O)N1CCC(CN2CCOC(CNC(=O)c3cc(Cl)c(N)cc3OCC)C2)CC1` (racemic) [Example 163], the half-inhibitory concentration (IC50) stood at 6.58 nM. `C=CCCC=CC(=O)N1CCC(CN2CCOC(CNC(=O)c3cc(Cl)c(N)cc3OCC)C2)CC1` (racemic) [Example 164]: the IC50 came to 7.5 nM. Take `CCOc1cc(N)c(Cl)cc1C(=O)NC[C@H]1CN(CC2CCN(C(=O)NC)CC2)CCO1` [Example 47]: the IC50 was determined as 8.04 nM. Still for that read-out and setting: then `COc1cc(N)c(Cl)cc1C(=O)NC[C@H]1CN(CC2CCN(C(=O)Nc3ccccc3)CC2)CCO1` [Example 52], with 1.94 nM. Still for that read-out and setting: as for `COc1ccccc1NC(=O)N1CCC(CN2CCO[C@@H](CNC(=O)c3cc(Cl)c(N)cc3OC)C2)CC1` [Example 53], the figure is 1.46 nM; as for `COc1cc(N)c(Cl)cc1C(=O)NC[C@H]1CN(CC2CCN(C(=O)Nc3cccc(C(F)(F)F)c3)CC2)CCO1` [Example 54], 5.91 nM; as for `COc1cc(N)c(Cl)cc1C(=O)NC[C@H]1CN(CC2CCN(C(=O)Nc3cccc(C(C)=O)c3)CC2)CCO1` [Example 56], 2.9 nM. Same read-out and setting: then `COc1cc(N)c(Cl)cc1C(=O)NC[C@H]1CN(CC2CCN(C(=O)Nc3cc(C)cc(C)c3)CC2)CCO1` [Example 57], with 1.82 nM; and `COc1cc(N)c(Cl)cc1C(=O)NC[C@H]1CN(CC2CCN(C(=O)Nc3ccc(Cl)c(Cl)c3)CC2)CCO1` [Example 58], with 1.97 nM.

In the case of `COc1cc(N)c(Cl)cc1C(=O)NC[C@H]1CN(CC2CCN(C(=O)NCc3ccccc3)CC2)CCO1` [Example 59], the IC50 turned out to be 2.83 nM. Still for that read-out and setting: as for `COc1cc(N)c(Cl)cc1C(=O)NC[C@H]1CN(CC2CCN(C(=O)NCc3ccccc3C)CC2)CCO1` [Example 60], the figure is 1.86 nM. Still for that read-out and setting: as for `COc1ccc(CNC(=O)N2CCC(CN3CCO[C@@H](CNC(=O)c4cc(Cl)c(N)cc4OC)C3)CC2)cc1` [Example 61], the figure is 3.7 nM; as for `COc1cc(N)c(Cl)cc1C(=O)NC[C@H]1CN(CC2CCN(C(=O)NCc3ccc(Cl)cc3Cl)CC2)CCO1` [Example 62], 2.51 nM; as for `COc1cc(N)c(Cl)cc1C(=O)NC[C@H]1CN(CC2CCN(C(=O)NCCc3ccccc3)CC2)CCO1` [Example 63], 8.6 nM.

In the case of `COc1cc(N)c(Cl)cc1C(=O)NC[C@H]1CN(CC2CCN(C(=O)N3CCCC3)CC2)CCO1` [Example 89], the half-inhibitory concentration (IC50) was determined as 7.33 nM. Same read-out and setting: then `CCOc1cc(N)c(Cl)cc1C(=O)NCC1CN(CC2CCN(C(=O)N3CCCC3)CC2)CCO1` (centres unmarked) [Example 90, 4-amino-5-chloro-2-ethoxy-N-[{4-[(1-(1-pyrrolidinecarbonyl)-4-piperidinyl)-methyl]-2-morpholinyl}methyl]benzamide 1.5 fumarate], with 6.98 nM; and `CCCOC(=O)N1CCC(CN2CCO[C@@H](CNC(=O)c3cc(Cl)c(N)cc3OC)C2)CC1` [Example 98], with 9.62 nM. `COc1cc(N)c(Cl)cc1C(=O)NC[C@H]1CN(CC2CCN(C(=O)OCC(C)C)CC2)CCO1` [Example 102]: the concentration for half-maximal inhibition (IC50) amounted to 6.79 nM. Same read-out and setting: then `CCOc1cc(N)c(Cl)cc1C(=O)NCC1CN(CC2CCN(C(=O)c3ccccc3)CC2)CCO1` (centres unmarked) [Example 112], with 3.01 nM. With `COc1cc(N)c(Cl)cc1C(=O)NC[C@H]1CN(CC2CCN(C(=O)c3cccc(F)c3)CC2)CCO1` [Example 113], the IC50 was 2.23 nM.

Regarding `CCOc1cc(N)c(Cl)cc1C(=O)NCC1CN(CC2CCN(C(=O)c3cccc(F)c3)CC2)CCO1` (centres unmarked) [Example 114], the 50% inhibitory concentration (IC50) amounted to 2.22 nM. As for `COc1cc(N)c(Cl)cc1C(=O)NC[C@H]1CN(CC2CCN(C(=O)c3ccc(Cl)cc3)CC2)CCO1` [Example 115], the IC50 came out at 2.48 nM.

As for `COc1cc(N)c(Cl)cc1C(=O)NC[C@H]1CN(CC2CCN(C(=O)c3cccc(Br)c3)CC2)CCO1` [Example 117], the half-maximal inhibitory concentration (IC50) came to 0.04 nM. Still for that read-out and setting: then `COc1cc(N)c(Cl)cc1C(=O)NC[C@H]1CN(CC2CCN(C(=O)c3ccccc3C)CC2)CCO1` [Example 118], with 1.7 nM. On the same count and under the same terms, then `COc1cc(N)c(Cl)cc1C(=O)NC[C@H]1CN(CC2CCN(C(=O)c3ccc(C)cc3)CC2)CCO1` [Example 120], with 2.63 nM; and `COc1cc(N)c(Cl)cc1C(=O)NC[C@H]1CN(CC2CCN(C(=O)c3ccc(C(C)(C)C)cc3)CC2)CCO1` [Example 123], with 2.11 nM.

Consider `CCOc1cc(N)c(Cl)cc1C(=O)NC[C@H]1CN(CC2CCN(C(=O)c3ccc(OC)cc3)CC2)CCO1` [Example 126], for which the 50% inhibitory concentration (IC50) amounted to 2.32 nM. On the same count and under the same terms, as for `COc1cc(N)c(Cl)cc1C(=O)NC[C@H]1CN(CC2CCN(C(=O)c3ccco3)CC2)CCO1` [Example 131], the figure is 6.96 nM; as for `Nc1c(Cl)cc(C(=O)NCC2CN(CC3CCN(C(=O)N4CCCC4)CC3)CCO2)c2c1CCO2` (centres unmarked) [Example 134], 1.5 nM.

`CN(C)C(=O)N1CCC(CN2CCO[C@@H](CNC(=O)c3cc(Cl)c(N)c4c3OCC4)C2)CC1` [Example 136]: the 50% inhibitory concentration (IC50) came out at 4.26 nM. Still for that read-out and setting: then `COC(=O)N1CCC(CN2CCOC(CNC(=O)c3cc(Cl)c(N)c4c3OCC4)C2)CC1` (centres unmarked) [Example 138], with 2.8 nM. The same measure, in the same setting: as for `CS(=O)(=O)N1CCC(CN2CCOC(CNC(=O)c3cc(Cl)c(N)c4c3OCC4)C2)CC1` (centres unmarked) [Example 140], the figure is 2.84 nM; as for `CCOc1cc(N)c(Cl)cc1C(=O)NC[C@H]1CN(CC2CCN(C(=O)c3ccccc3OC(C)=O)CC2)CCO1` [Example 167], 6.36 nM. Same read-out and setting: then `COc1cc(N)c(Cl)cc1C(=O)NC[C@H]1CN(CC2CCN(C(=O)c3cccc(OC(C)=O)c3)CC2)CCO1` [Example 168], with 5.17 nM; and `COc1cc(N)c(Cl)cc1C(=O)NC[C@H]1CN(CC2CCN(C(=O)c3ccccc3Oc3ccccc3)CC2)CCO1` [Example 170], with 5.65 nM; and `COc1cc(N)c(Cl)cc1C(=O)NC[C@H]1CN(CC2CCN(C(=O)c3cccc(N(C)C)c3)CC2)CCO1` [Example 171], with 2.16 nM.

Consider `COc1cc(N)c(Cl)cc1C(=O)NC[C@H]1CN(CC2CCN(C(=O)c3ccc(N(C)C)cc3)CC2)CCO1` [Example 172], for which the IC50 came out at 0.87 nM. On the same count and under the same terms, as for `COC(=O)c1ccc(C(=O)N2CCC(CN3CCO[C@@H](CNC(=O)c4cc(Cl)c(N)cc4OC)C3)CC2)cc1` [Example 174], the figure is 8.52 nM; as for `COc1cc(N)c(Cl)cc1C(=O)NC[C@H]1CN(CC2CCN(C(=O)c3ccc(-c4ccccc4)cc3)CC2)CCO1` [Example 175], 6.13 nM; as for `COc1cc(N)c(Cl)cc1C(=O)NC[C@H]1CN(CC2CCN(C(=O)c3ccc(N)c(Cl)c3)CC2)CCO1` [Example 176], 0.72 nM. On the same count and under the same terms, then `COc1cc(N)c(Cl)cc1C(=O)NC[C@H]1CN(CC2CCN(C(=O)c3cccc4c3OCC4)CC2)CCO1` [Example 177], with 1.62 nM. Consider `COc1cc(N)c(Cl)cc1C(=O)NC[C@H]1CN(CC2CCN(C(=O)c3ccc(C)s3)CC2)CCO1` [Example 178], for which the IC50 is 1.24 nM. Consider `COc1cc(N)c(Cl)cc1C(=O)NC[C@H]1CN(CC2CCN(C(=O)CC3CCNCC3)CC2)CCO1` [Example 194], for which the half-inhibitory concentration (IC50) turned out to be 10.1 nM. Regarding `COc1cc(N)c(Cl)cc1C(=O)NC[C@H]1CN(CC2CCN(C(=O)c3cccc(O)c3)CC2)CCO1` [Example 201], the IC50 amounted to 4.45 nM. On to `COc1cc(N)c(Cl)cc1C(=O)NC[C@H]1CN(CC2CCN(C(=O)c3ccc(O)cc3)CC2)CCO1` [Example 202], for which the 50% inhibitory concentration (IC50) was 4.52 nM. Same read-out and setting: then `CCOc1cc(N)c(Cl)cc1C(=O)NC[C@H]1CN(CC2CCN(C(=O)n3ccnc3)CC2)CCO1` [Example 206, (S)-4-amino-5-chloro-2-ethoxy-N-[{4-[(1-imidazolecarbonyl-4-piperidinyl)-methyl]-2-morpholinyl}methyl]benzamide], with 10.6 nM.

The subject of the next assay is Male Slc-ddy mice. Put plainly: Mouse defecation assay. It is filed as in vivo. The arrangement: key: −: No Effect; +: Moderately Improved (p<0.05); ++: Significantly Improved (p<0.01). The conditions noted are these: 3 mg/kg orally; stool weight 30, 60 and 120 minutes after administration; Dunnett assay vs control. The method, then: Male Slc-ddy mice (body weight 25 to 30 g) were used and allowed to ingest food and water ad libitum until commencement of experiments.
A group of 25 mice was divided into 5 groups, which 5 mice each per group were respectively transferred to fasting cages to adjust to new environments for about 1 hour. Then, each mouse was orally administered 3 mg/kg suspension of a test compound in 0.5% tragacanth solution to measure each stool weight of each group 30, 60, and 120 minutes after oral administration.
Efficacies were evaluated by Dunnett assay between test compounds and control.
As for `COc1cc(N)c(Cl)cc1C(=O)NC[C@H]1CN(CC2CCN(C(=O)Nc3ccccc3)CC2)CCO1` [Example 52], the Effect result is on record as “−”.

Turning to `COc1cc(N)c(Cl)cc1C(=O)NC[C@H]1CN(CC2CCN(C(=O)Nc3cccc(C(F)(F)F)c3)CC2)CCO1` [Example 54], the Effect result was “+”. The same measure, in the same setting: then `COc1cc(N)c(Cl)cc1C(=O)NC[C@H]1CN(CC2CCN(C(=O)Nc3ccc(Cl)c(Cl)c3)CC2)CCO1` [Example 58], with “+”. Still for that read-out and setting: then `COc1cc(N)c(Cl)cc1C(=O)NC[C@H]1CN(CC2CCN(C(=O)N(C(C)C)C(C)C)CC2)CCO1.Cl` [Example 88], with “++”. Same read-out and setting: as for `COc1cc(N)c(Cl)cc1C(=O)NC[C@H]1CN(CC2CCN(C(=O)N3CCCC3)CC2)CCO1` [Example 89], the entry is “+”; as for `COc1cc(N)c(Cl)cc1C(=O)NC[C@H]1CN(CC2CCN(C(=O)c3ccc(Cl)cc3)CC2)CCO1` [Example 115], “+”.

For the molecule `COC(=O)N1CCC(CN2CCOC(CNC(=O)c3cc(Cl)c(N)c4c3OCC4)C2)CC1` (centres unmarked) [Example 138], the Effect entry is “++”.

(Values after patent US7906510B2, “Amide derivative and pharmaceutical composition containing the same” (Dainippon Sumito Pharma Co., Ltd., priority 2008, dated 2011).)
